# Measured values from US11912703B2, “6-azaindole compounds” (BRISTOL-MYERS SQUIBB COMPANY, priority 2017, dated 2024).
# What was measured:
# human TLR7 = human TLR7 (Homo sapiens (Human), UniProt Q9NYK1); experiment: TLR7 inhibition reporter assay (HEK-Blue SEAP); format: cell-based; conditions: HEK-Blue cells overexpressing human TLR7, gardiquimod 7.5 μM stimulation
# human TLR9 = human TLR9 (Homo sapiens (Human), UniProt Q9NR96); experiment: TLR9 inhibition reporter assay (HEK-Blue SEAP); conditions: read-out: TLR9 IC50; HEK-Blue cells overexpressing human TLR9, ODN2006 5 nM stimulation, SEAP reporter;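 note: SEAP driven by IFN-β minimal promoter carrying five NF-κB and AP-1 sites, 22 h at 37 °C, compounds 0.05 nM–50 µM, inhibition scaled between agonist-plus-DMSO and reference-inhibitor wells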
# human TLR9, sequence (Q9NR96 26-1032): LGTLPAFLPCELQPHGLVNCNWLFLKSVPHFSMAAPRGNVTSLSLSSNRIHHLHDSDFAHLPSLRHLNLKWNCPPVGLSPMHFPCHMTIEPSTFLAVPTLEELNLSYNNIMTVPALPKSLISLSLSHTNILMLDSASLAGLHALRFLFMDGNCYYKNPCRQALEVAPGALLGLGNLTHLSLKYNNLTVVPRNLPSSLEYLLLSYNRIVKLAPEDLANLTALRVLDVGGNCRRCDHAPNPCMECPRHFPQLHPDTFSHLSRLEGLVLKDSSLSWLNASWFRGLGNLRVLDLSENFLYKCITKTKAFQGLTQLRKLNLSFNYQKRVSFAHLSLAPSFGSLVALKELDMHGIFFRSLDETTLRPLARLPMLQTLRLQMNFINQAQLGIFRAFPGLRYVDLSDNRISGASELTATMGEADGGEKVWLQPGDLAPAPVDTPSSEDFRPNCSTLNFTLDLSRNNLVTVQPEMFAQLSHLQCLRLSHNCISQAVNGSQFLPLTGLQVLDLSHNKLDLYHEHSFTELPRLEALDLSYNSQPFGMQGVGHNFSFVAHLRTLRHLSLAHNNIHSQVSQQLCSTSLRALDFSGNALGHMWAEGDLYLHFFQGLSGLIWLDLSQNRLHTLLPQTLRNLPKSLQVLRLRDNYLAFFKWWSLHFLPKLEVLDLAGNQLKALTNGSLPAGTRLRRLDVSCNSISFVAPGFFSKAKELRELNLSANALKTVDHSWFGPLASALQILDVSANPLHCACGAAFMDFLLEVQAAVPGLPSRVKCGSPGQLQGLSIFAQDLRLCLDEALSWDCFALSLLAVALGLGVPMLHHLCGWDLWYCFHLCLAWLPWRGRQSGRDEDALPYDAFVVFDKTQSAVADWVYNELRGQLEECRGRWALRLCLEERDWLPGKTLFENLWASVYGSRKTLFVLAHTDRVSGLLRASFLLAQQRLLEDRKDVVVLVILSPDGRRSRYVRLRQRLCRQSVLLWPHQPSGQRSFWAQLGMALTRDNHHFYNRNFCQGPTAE
# Procedure: HEK-Blue™-cells (Invivogen) overexpressing human TLR7, TLR8 or TLR9 receptors were used for screening inhibitors of these receptors using an inducible SEAP (secreted embryonic alkaline phosphatase) reporter gene under the control of the IFN-β minimal promoter fused to five NF-κB and AP-1-binding sites. Briefly, cells are seeded into Greiner 384 well plates (15000 cells per well for TLR7, 20,000 for TLR8 and 25,000 for TLR9) and then treated with test compounds in DMSO to yield a final dose response concentration range of 0.05 nM-50 μM. After a 30 minute compound pre-treatment at room temperature, the cells are then stimulated with a TLR7 ligand (gardiquimod at a final concentration of 7.5 μM), TLR8 ligand (R848 at a final concentration of 15.9 μM) or TLR9 ligand (ODN2006 at a final concentration of 5 nM) to activate NF-κB and AP-1 which induce the production of SEAP. After a 22 hour incubation at 37° C., 500 CO2, SEAP levels are determined with the addition of HEK-Blue™ Detection reagent (Invivogen), a cell culture medium that allows for detection of SEAP, according to manufacturer's specifications.
# human TLR8 = human TLR8 (Homo sapiens (Human), UniProt Q9NR97); experiment: TLR8 inhibition reporter assay (HEK-Blue SEAP); conditions: read-out: TLR8 IC50; HEK-Blue cells overexpressing human TLR8, R848 15.9 μM stimulation, SEAP reporter;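 note: SEAP driven by IFN-β minimal promoter with five NF-κB and AP-1 sites, compounds tested 0.05 nM to 50 µM, 22 h incubation, inhibition relative to agonist plus DMSO wells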
# human TLR8, sequence (Q9NR97 27-1041): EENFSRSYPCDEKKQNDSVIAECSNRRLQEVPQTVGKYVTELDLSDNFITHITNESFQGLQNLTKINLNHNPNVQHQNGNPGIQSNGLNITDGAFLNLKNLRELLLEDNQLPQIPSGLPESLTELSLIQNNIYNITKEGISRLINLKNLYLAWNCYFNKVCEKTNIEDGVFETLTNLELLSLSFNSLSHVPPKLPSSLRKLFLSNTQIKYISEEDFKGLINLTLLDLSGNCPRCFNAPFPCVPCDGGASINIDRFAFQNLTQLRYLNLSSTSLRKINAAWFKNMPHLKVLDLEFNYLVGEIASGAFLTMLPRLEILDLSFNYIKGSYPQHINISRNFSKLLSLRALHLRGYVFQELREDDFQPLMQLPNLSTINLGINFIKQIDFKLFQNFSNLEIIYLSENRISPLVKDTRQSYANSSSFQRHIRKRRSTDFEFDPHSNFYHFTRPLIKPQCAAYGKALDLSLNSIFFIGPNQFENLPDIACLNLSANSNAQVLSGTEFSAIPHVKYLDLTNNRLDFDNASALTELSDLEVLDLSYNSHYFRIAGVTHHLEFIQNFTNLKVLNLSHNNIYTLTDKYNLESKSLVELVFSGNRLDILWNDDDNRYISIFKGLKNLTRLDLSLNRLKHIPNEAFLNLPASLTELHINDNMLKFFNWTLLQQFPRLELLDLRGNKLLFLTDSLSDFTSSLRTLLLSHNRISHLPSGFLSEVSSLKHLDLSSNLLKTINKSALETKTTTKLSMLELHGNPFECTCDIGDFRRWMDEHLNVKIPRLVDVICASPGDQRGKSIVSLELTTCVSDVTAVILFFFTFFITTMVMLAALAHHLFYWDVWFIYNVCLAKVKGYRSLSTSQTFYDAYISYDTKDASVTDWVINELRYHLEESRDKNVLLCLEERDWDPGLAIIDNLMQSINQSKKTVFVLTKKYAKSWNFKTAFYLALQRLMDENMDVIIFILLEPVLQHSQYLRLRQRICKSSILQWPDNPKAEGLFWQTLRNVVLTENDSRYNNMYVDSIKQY
# human TLR7, sequence (Q9NYK1 27-1049): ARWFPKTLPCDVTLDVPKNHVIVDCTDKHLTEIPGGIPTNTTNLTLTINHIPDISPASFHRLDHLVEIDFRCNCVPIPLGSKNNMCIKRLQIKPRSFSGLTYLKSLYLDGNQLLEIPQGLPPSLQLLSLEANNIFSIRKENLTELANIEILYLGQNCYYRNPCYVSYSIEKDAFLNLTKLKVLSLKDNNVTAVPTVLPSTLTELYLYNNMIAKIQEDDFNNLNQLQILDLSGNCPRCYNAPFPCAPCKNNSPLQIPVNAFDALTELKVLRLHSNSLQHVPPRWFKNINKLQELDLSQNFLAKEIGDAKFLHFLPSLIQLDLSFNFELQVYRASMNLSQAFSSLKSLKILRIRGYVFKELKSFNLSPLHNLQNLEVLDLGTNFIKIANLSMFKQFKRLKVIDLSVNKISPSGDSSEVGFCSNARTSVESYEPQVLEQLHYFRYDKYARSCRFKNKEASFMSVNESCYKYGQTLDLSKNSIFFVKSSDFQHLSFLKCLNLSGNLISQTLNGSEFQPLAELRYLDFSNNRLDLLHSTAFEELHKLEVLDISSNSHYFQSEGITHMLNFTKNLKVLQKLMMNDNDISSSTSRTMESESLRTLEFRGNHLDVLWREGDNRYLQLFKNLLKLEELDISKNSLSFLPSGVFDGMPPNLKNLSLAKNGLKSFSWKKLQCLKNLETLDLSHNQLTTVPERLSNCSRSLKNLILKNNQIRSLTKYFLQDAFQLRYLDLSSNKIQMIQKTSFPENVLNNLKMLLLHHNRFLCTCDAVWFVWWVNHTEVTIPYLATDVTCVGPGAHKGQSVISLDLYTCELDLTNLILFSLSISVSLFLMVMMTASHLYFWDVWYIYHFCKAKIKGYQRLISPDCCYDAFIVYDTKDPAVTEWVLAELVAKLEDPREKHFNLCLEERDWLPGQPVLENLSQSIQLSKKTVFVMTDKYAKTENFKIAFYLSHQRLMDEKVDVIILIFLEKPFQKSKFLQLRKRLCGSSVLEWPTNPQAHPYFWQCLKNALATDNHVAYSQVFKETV
IC50 (human TLR7) [nM],IC50 (human TLR9) [nM],IC50 (human TLR8) [nM],SMILES
11,1390,60,CNC(=O)CN(C)C1CCC(c2cc3c(C(C)C)c(-c4cc(OC)c5ncnn5c4)[nH]c3cn2)CC1 (stereo not drawn) [Example 328]
7.5,647,7.4,CNC(=O)CNC1CCN(c2cc3c(C(C)C)c(-c4cc(OC)c5ncnn5c4)[nH]c3cn2)CC1 [Example 329]
1.1,255,5.5,COc1cc(-c2[nH]c3cnc(C4CCC(NC5COC5)CC4)cc3c2C(C)C)cn2ncnc12 (stereo not drawn) [Example 330]
263,3300,637,CCN(C)C1CCC(c2cc3c(C(C)C)c(-c4cc(OC)c5ncnn5c4)[nH]c3cn2)CC1 (stereo not drawn) [Example 331]
7.7,154,56,COc1cc(-c2[nH]c3cnc(C4CCC(N5CCC5)CC4)cc3c2C(C)C)cn2ncnc12 (stereo not drawn) [Example 332]
5.4,1060,4.3,COc1cc(-c2[nH]c3cnc(N4CCC(NCC(=O)N(C)C)CC4)cc3c2C(C)C)cn2ncnc12 [Example 333]
0.35,452,1.4,Cc1c(-c2[nH]c3cnc(C4CCC(NC5COC5)CC4)cc3c2C(C)C)cn2ncnc2c1C (stereo not drawn) [Example 334]
4.3,669,42,Cc1c(-c2[nH]c3cnc(C4CCC(N5CCC5)CC4)cc3c2C(C)C)cn2ncnc2c1C (stereo not drawn) [Example 335]
8.8,4000,36,Cc1c(-c2[nH]c3cnc(C4CCC(NCC(F)F)CC4)cc3c2C(C)C)cn2ncnc2c1C (stereo not drawn) [Example 336]
3.9,777,4,Cc1c(-c2[nH]c3cnc(C4CCC(NCC(C)(C)C)CC4)cc3c2C(C)C)cn2ncnc2c1C (stereo not drawn) [Example 337]
3.4,1110,30,CNC(=O)CN(C)C1CCC(c2cc3c(C(C)C)c(-c4cc(OC)c5ncnn5c4)[nH]c3cn2)CC1 (stereo not drawn) [Example 338]
12,677,28,CNCC(=O)NC1CCN(c2cc3c(C(C)C)c(-c4cc(OC)c5ncnn5c4)[nH]c3cn2)CC1 [Example 339]
1270,11500,708,COc1cc(-c2[nH]c3cnc(C4CCC(N(C)C)CC4)cc3c2C(C)C)cn2ncnc12 (stereo not drawn) [Example 340]
3.2,1030,21,Cc1cc(-c2[nH]c3cnc(C4CCN(C5COC5)CC4)cc3c2C(C)C)cn2ncnc12 [Example 341]
3.8,224,8.3,COc1cc(-c2[nH]c3cnc(C4CCC(NC5CCOC5)CC4)cc3c2C(C)C)cn2ncnc12 (stereo not drawn) [Example 342]
28,217,190,COc1cc(-c2[nH]c3cnc(C4CCN(C(=O)CN(C)C)CC4)cc3c2C(C)C)cn2ncnc12 [Example 343]
1.7,257,3.5,COc1cc(-c2[nH]c3cnc(N4CCC(NC(=O)CN(C)C)CC4)cc3c2C(C)C)cn2ncnc12 [Example 344]
11,712,13,COc1cc(-c2[nH]c3cnc(N4CCC(NCC(N)=O)CC4)cc3c2C(C)C)cn2ncnc12 [Example 345]
3.3,750,14,Cc1c(-c2[nH]c3cnc(C4CCC(NC5COC5)CC4)cc3c2C(C)C)cn2ncnc2c1C (stereo not drawn) [Example 346]
3.9,790,30,COCCNC1CCC(c2cc3c(C(C)C)c(-c4cn5ncnc5c(C)c4C)[nH]c3cn2)CC1 (stereo not drawn) [Example 347]
3.5,468,9,COCCNC1CCC(c2cc3c(C(C)C)c(-c4cn5ncnc5c(C)c4C)[nH]c3cn2)CC1 (stereo not drawn) [Example 348]
1.1,344,3.6,Cc1c(-c2[nH]c3cnc(C4CCC(NC5CCOC5)CC4)cc3c2C(C)C)cn2ncnc2c1C (stereo not drawn) [Example 349]
1.4,1080,4.7,Cc1c(-c2[nH]c3cnc(C4CCC(NCC(F)F)CC4)cc3c2C(C)C)cn2ncnc2c1C (stereo not drawn) [Example 350]

IC50 (human TLR7) [nM],IC50 (human TLR9) [nM],IC50 (human TLR8) [nM],SMILES
11,345,5.4,Cc1c(-c2[nH]c3cnc(C4CCC(NCC(C)(C)C)CC4)cc3c2C(C)C)cn2ncnc2c1C (stereo not drawn) [Example 351]
14,19800,0.73,"Cc1c(-c2[nH]c3cnc(N4CCN(CC(=O)N(C)C)CC4)c(C)c3c2C(C)C)cn2ncnc2c1C [Example 352, 2-(4-(2-(7,8-dimethyl-[1,2,4]triazolo[1,5-a]pyridin-6-yl)-3-isopropyl-4-methyl-1H-pyrrolo[2,3-c]pyridin-5-yl)piperazin-1-yl)-N,N-dimethylacetamide]"
0.61,2530,1.4,"COc1cc(-c2[nH]c3cnc(N4CCNCC4)c(F)c3c2C(C)C)cn2ncnc12 [Example 353, 6-(4-fluoro-3-isopropyl-5-(piperazin-1-yl)-1H-pyrrolo[2,3-c]pyridin-2-yl)-8-methoxy-[1,2,4]triazolo[1,5-a]pyridine]"
33,5590,22,"COc1cc(-c2[nH]c3cnc(N4CC5(CNC5)C4)c(F)c3c2C(C)C)cn2ncnc12 [Example 355, 6-(4-fluoro-3-isopropyl-5-(2,6-diazaspiro[3.3]heptan-2-yl)-1H-pyrrolo[2,3-c]pyridin-2-yl)-8-methoxy-[1,2,4]triazolo[1,5-a]pyridine]"
15,18500,6.1,"CNC(=O)CN1CC2(C1)CN(c1ncc3[nH]c(-c4cc(OC)c5ncnn5c4)c(C(C)C)c3c1F)C2 [Example 356, 2-(6-(4-fluoro-3-isopropyl-2-(8-methoxy-[1,2,4]triazolo[1,5-a]pyridin-6-yl)-1H-pyrrolo[2,3-c]pyridin-5-yl)-2,6-diazaspiro[3.3]heptan-2-yl)-N-methylacetamide]"
21,37400,10,COc1cc(-c2[nH]c3cnc(N4CC5(CN(CCS(C)(=O)=O)C5)C4)c(F)c3c2C(C)C)cn2ncnc12 [Example 357]
3.6,> 50000,3.8,COc1cc(-c2[nH]c3cnc(N4CCN(CC(N)=O)CC4)c(F)c3c2C(C)C)cn2ncnc12 [Example 358]
2.5,> 50000,2.7,CNC(=O)CN1CCN(c2ncc3[nH]c(-c4cc(OC)c5ncnn5c4)c(C(C)C)c3c2F)CC1 [Example 359]
2.9,23000,1.5,COc1cc(-c2[nH]c3cnc(N4CCN(CC(=O)N(C)C)CC4)c(F)c3c2C(C)C)cn2ncnc12 [Example 360]
3.8,4850,0.76,COCCN1CCN(c2ncc3[nH]c(-c4cc(OC)c5ncnn5c4)c(C(C)C)c3c2F)CC1 [Example 361]
2.7,8700,0.38,COc1cc(-c2[nH]c3cnc(N4CCN(CC(C)(C)O)CC4)c(F)c3c2C(C)C)cn2ncnc12 [Example 364]
0.42,1490,0.51,COc1cc(-c2[nH]c3cnc(N4CCN(CC#N)CC4)c(F)c3c2C(C)C)cn2ncnc12 [Example 365]
3.8,16200,39,COc1cc(-c2[nH]c3cnc(N4CCN(CC(F)(F)F)CC4)c(F)c3c2C(C)C)cn2ncnc12 [Example 366]
159,> 50000,52,"COc1cc(-c2[nH]c3cnc(N4CC5(CN(C(=O)CN6CCOCC6)C5)C4)c(F)c3c2C(C)C)cn2ncnc12 [Example 367, 1-(6-(4-fluoro-3-isopropyl-2-(8-methoxy-[1,2,4]triazolo[1,5-a]pyridin-6-yl)-1H-pyrrolo[2,3-c]pyridin-5-yl)-2,6-diazaspiro[3.3]heptan-2-yl)-2-morpholinoethan-1-one]"
27,> 50000,23,"COc1cc(-c2[nH]c3cnc(N4CC5(C4)CN(C4COC4)C5)c(F)c3c2C(C)C)cn2ncnc12 [Example 369, 6-(4-fluoro-3-isopropyl-5-(6-(oxetan-3-yl)-2,6-diazaspiro[3.3]heptan-2-yl)-1H-pyrrolo[2,3-c]pyridin-2-yl)-8-methoxy-[1,2,4]triazolo[1,5-a]pyridine]"
19,10300,174,COc1cc(-c2[nH]c3cnc(N4CC5(C4)CN(C4CCOCC4)C5)c(F)c3c2C(C)C)cn2ncnc12 [Example 370]
9,5480,5.9,COc1cc(-c2[nH]c3cnc(N4CC5(CN(CC6CCOCC6)C5)C4)c(F)c3c2C(C)C)cn2ncnc12 [Example 371]
7.9,5440,440,COc1cc(-c2[nH]c3cnc(N4CC5(CN(CC(C)C)C5)C4)c(F)c3c2C(C)C)cn2ncnc12 [Example 372]
8.1,5820,7.1,COc1cc(-c2[nH]c3cnc(N4CC5(C4)CN(C(C)C)C5)c(F)c3c2C(C)C)cn2ncnc12 [Example 373]
6,5470,39,COc1cc(-c2[nH]c3cnc(N4CC5(CN(CC6CC6)C5)C4)c(F)c3c2C(C)C)cn2ncnc12 [Example 374]
17,7210,> 3120,COc1cc(-c2[nH]c3cnc(N4CC5(CN(CC6CCC6)C5)C4)c(F)c3c2C(C)C)cn2ncnc12 [Example 375]
9.5,6000,> 3120,COc1cc(-c2[nH]c3cnc(N4CC5(CN(CC6(C)COC6)C5)C4)c(F)c3c2C(C)C)cn2ncnc12 [Example 376]
